For data set [1], the target named is T1, amylin receptor (hAMY3R) (Homo sapiens, UniProt O60896+P30988).
T1 construct: host or cells: CHO-K1/Ga15/AMY3 cells, further stably transfected with a CRE-luciferase plasmid
T1 sequence (P30988 25-474): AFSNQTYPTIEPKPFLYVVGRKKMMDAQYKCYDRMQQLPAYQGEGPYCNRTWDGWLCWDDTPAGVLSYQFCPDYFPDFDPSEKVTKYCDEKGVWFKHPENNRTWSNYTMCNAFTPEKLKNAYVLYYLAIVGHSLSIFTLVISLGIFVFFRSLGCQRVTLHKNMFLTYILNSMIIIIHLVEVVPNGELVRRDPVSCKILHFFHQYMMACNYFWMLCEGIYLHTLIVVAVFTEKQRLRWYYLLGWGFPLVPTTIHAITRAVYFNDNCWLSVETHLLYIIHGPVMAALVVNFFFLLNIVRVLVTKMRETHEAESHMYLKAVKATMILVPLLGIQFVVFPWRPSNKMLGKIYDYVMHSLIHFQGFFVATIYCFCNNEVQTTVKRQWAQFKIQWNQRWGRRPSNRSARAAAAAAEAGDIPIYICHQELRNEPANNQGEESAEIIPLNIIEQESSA
T1 sequence (O60896 24-148): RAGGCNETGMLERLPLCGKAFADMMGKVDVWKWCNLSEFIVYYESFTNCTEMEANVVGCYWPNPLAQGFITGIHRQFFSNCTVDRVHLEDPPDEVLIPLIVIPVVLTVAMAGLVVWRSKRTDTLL
The experiment in a line: Amylin receptor agonism testing, CRE-luciferase assay in stably transfected CHO-K1/Ga15/AMY3 cells. Type of data set: cell-based. Conditions: incubation of 4 hours (N2 and N3 retested); Table 3 lower part; read-out: EC50, activity against the amylin receptor in cells.

For data set [2] the following is noted: dog, in vivo, 7 mg.
Procedure: Whole blood of the animals was collected pre dose (−10 min) and 2 h, 4 h, and 8 h post dose on Day 1, pre dose (−10 min) and 2 h and 4 h post dose on Day 2-Day 4, and pre dose (−10 min) and 2 h, 4 h, 8 h, 24 h, 48 h, and 72 h post dose on Day 5, and processed into plasma using heparin sodium as an anticoagulant. […] Experimental data was plotted using GraphPad Prism9.3.1.
In data set [3] the target is T2, amylin receptor (hAMY3R) (human (printed as hAMY3R), UniProt P30988 25-474; O60896 24-148).
T2 sequence (looked up) 1: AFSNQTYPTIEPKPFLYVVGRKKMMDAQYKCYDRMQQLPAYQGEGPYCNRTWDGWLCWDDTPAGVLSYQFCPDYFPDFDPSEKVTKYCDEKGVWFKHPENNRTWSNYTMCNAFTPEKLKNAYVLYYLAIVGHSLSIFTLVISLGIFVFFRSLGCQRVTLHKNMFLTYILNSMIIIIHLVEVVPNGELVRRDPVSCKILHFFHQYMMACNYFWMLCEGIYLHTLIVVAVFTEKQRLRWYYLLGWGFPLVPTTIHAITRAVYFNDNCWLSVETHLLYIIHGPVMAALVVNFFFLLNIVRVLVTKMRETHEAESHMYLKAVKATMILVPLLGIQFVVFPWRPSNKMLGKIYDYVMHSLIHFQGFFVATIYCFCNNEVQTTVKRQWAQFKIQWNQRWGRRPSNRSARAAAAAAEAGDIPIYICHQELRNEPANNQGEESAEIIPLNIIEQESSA
T2 sequence (looked up) 2: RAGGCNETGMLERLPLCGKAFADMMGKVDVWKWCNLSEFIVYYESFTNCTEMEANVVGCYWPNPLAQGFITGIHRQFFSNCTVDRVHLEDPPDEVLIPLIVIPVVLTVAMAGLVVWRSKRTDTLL
The experiment in a line: cell-based or functional assay.

Experimental findings from patent US20260265305A1, “POLYPEPTIDE DERIVATIVE FOR ORAL DELIVERY” (Hangzhou Sciwind Biosciences Co., Ltd., priority 2023, published 2026) are described below.

Numbered stars: 1 amine (or outer) side, 2 acyl side, 3 side chain; on linkers, the order of the positions; unused ones are H or OH. Bridge positions count the residues as written; N and C are the ends. Square brackets hold non-standard residues; d marks the D form. Ends that are not written are not given here. Peptide text beside a SMILES is read from it. * marks the point of attachment. C18 diacid = O=C(O)CCCCCCCCCCCCCCCCC(=O)*; βAsp = O=C(O)[C@H](CC(=O)[*:2])N[*:1]; Hyp = O=C(O)[C@@H]1C[C@@H](O)CN1; AEEA = NCCOCCOCC(=O)O

A word on the EC50: it is the concentration at which the effect is half-maximal. With `CC[C@H](C)[C@H](NC(=O)[C@@H]1CCCN1C(=O)[C@H](CCCCN)NC(=O)[C@H](CC(C)C)NC(=O)[C@H](CC(N)=O)NC(=O)[C@H](CC(N)=O)NC(=O)[C@H](CO)NC(=O)[C@H](CO)NC(=O)[C@H](Cc1c[nH]cn1)NC(=O)[C@H](CCCNC(=N)N)NC(=O)[C@H](CC(C)C)NC(=O)[C@H](Cc1ccccc1)NC(=O)[C@H](CC(=O)O)NC(=O)[C@H](C)NC(=O)[C@H](CC(C)C)NC(=O)[C@H](CCCNC(=N)N)NC(=O)[C@H](CCC(N)=O)NC(=O)[C@@H](NC(=O)[C@H](C)NC(=O)[C@@H]1CSSC[C@H](NC(=O)[C@H](CCCCN)NC(=O)COCCOCCNC(=O)COCCOCCNC(=O)C[C@H](NC(=O)CCCCCCCCCCCCCCCCC(=O)O)C(=O)O)C(=O)N[C@@H](CC(N)=O)C(=O)N[C@@H]([C@@H](C)O)C(=O)N[C@@H](C)C(=O)N[C@@H]([C@@H](C)O)C(=O)N1)[C@@H](C)O)C(=O)N[C@@H](CC(C)C)C(=O)N1CCC[C@H]1C(=O)N1CCC[C@H]1C(=O)N[C@H](C(=O)N[C@@H](CC(N)=O)C(=O)N[C@H](C(=O)NCC(=O)N[C@@H](CO)C(=O)N[C@@H](CC(N)=O)C(=O)N[C@H](C(=O)N1C[C@H](O)C[C@H]1C(N)=O)[C@@H](C)O)C(C)C)[C@@H](C)O` [N3] ({C18 diacid-βAsp-AEEA-AEEA}-KCNTATCATQRLADFLRHSSNNLKPILPPTNVGSNT[Hyp]-NH2; disulfide 2-7), the EC50 on amylin receptor (hAMY3R) [1] turned out to be 0.001 nM. Besides, the oral bioavailability entry in data set [2] was “significantly improving the bioavailability”.
For the molecule ASQLSTAVLGRLSQELHRLQDYPRTDVGSGSP-NH2 [M5], in the data set with amylin receptor (hAMY3R) [3], the “EC50, CRE-luciferase reporter in amylin receptor CHO cells, 24 h” value came to 0.033 nM.
